Assay results reported in article PMC10140581, “Development and evaluation of novel artemisinin-isatin hybrids with potential anti-leukemic cytotoxicity” (Frontiers in Oncology, 2023).

What was measured:
[1] = system: CCRF-CEM human acute lymphoblastic leukemia cell line; assay: MTT antiproliferative assay, CCRF-CEM; assay type: cell-based
Protocol: (§1) The antiproliferative activity and cytotoxicity of ester tethered ART-isatin hybrids 7a-u against human myeloid leukemia cell lines (K562 CM-0130 purchased from Procell and K562/ADR AW-CELLS-H0187 purchased from AnWei-sci), human acute lymphoblastic leukemia cell line (CCRF-CEM CL-0058 purchased from Procell) as well as cytotoxicity towards normal human peripheral blood mononuclear cells (PBMCs 230470, purchased from Mingzhoubio) were assessed by 3-(4,5-dimethylthiazol-2-yl)-2,5-diphenyltetrazolium bromide (MTT) assay.
(§2) Medium in wells was replaced after 24 h with fresh medium containing the tested compounds in DMSO (1% v/v) and incubated for 72 h. […] 3-(4,5-dimethyl-2-thiazolyl)-2,5-diphenyltetrazolium bromide (MTT) solution (10 µL) was added to each well, and the cultures were incubated for an additional 4 h at 37°C. A further 100 µL of […] was added and incubation continued overnight at 37°C. The absorbance at 540 nm was determined in each well with a 96-well plate reader. The growth of the treated cells was compared with that of untreated cells. Half maximum inhibitory concentration (IC50) is a measurement of the efficacy of a substance in inhibiting a specific biological or biochemical process. […] In this experiment, the dose-response curve constructed by Spss22.0 software was used to calculate the inhibitory effect of the hybrid (0 μM-100 μM) on the activity of leukemia cell lines. Each experiment was performed independently in triplicate with three tests in each, and results were reported as mean inhibitory concentration IC50.

[2] = system: K562/ADR human myeloid leukemia cell line; assay: MTT antiproliferative assay, K562/ADR; assay type: cell-based
Protocol: as §1, with “assay. The antiproliferative activity was expressed by half maximal inhibitory concentration (IC50) values, which were presented in Table 2 .” for “assay.”
as §2

[3] = system: K562 human myeloid leukemia cell line; assay: MTT antiproliferative assay, K562; assay type: cell-based
Protocol: as §1, §2

[4] = MTT cytotoxicity assay, normal PBMCs; assay type: cell-based, human; conditions: normal peripheral blood mononuclear cells (PBMCs); MTT assay, normal human PBMCs
Protocol: as §1

[5] = system: normal human peripheral blood mononuclear cells (PBMCs); assay: MTT cytotoxicity assay, normal PBMCs; assay type: cell-based; conditions: PBMCs vs CCRF-CEM
Protocol: as §1

Row | IC50 [1] [µM] | IC50 [2] [µM] | IC50 [3] [µM] | Compound | IC50 [4] [µM] | SI, Selectivity index, IC50(PBMCs)/IC50(CCRF-CEM) [5]
1 | 1.9 | > 100 | > 100 | CCON=C1C(=O)N(CCCC(=O)OC2O[C@@H]3O[C@@]4(C)CC[C@H]5[C@H](C)CC[C@@H]([C@H]2C)[C@@]35OO4)c2ccc(OC)cc21 (stereo partly drawn) [hybrid 7t, (3R,5aS,6R,8aS,9R,12R,12aR)-3,6,9-trimethyldecahydro-12H-3,12-epoxy[1,2]dioxepino[4,3-i]isochromen-10-yl 4-(3-(ethoxyimino)-5-methoxy-2-oxoindolin-1-yl)butanoate] | > 100 | >52.63
2 | 9.21 | > 100 | 6.32 | C[C@@H]1CC[C@H]2[C@@H](C)C(OC(=O)CCCN3C(=O)C(=NOCc4ccccc4)c4cc(F)ccc43)O[C@@H]3O[C@@]4(C)CC[C@@H]1[C@]32OO4 (stereo partly drawn) [hybrid 7r, (3R,5aS,6R,8aS,9R,12R,12aR)-3,6,9-trimethyldecahydro-12H-3,12-epoxy[1,2]dioxepino[4,3-i]isochromen-10-yl 4-(3-[(benzyloxy)imino)-5-fluoro-2-oxoindolin-1-yl]butanoate] | > 100 | >10.85
3 | 15.2 | 22.7 | 3.78 | CON=C1C(=O)N(CCC(=O)OC2O[C@@H]3O[C@@]4(C)CC[C@H]5[C@H](C)CC[C@@H]([C@H]2C)[C@@]35OO4)c2ccccc21 (stereo partly drawn) [hybrid 7e, (3R,5aS,6R,8aS,9R,12R,12aR)-3,6,9-trimethyldecahydro-12H-3,12-epoxy[1,2]dioxepino[4,3-i]isochromen-10-yl 3-(3-(methoxyimino)-2-oxoindolin-1-yl)propanoate] | > 100 | >6.59
4 | 12.7 | > 100 | 16 | CCON=C1C(=O)N(CCCC(=O)OC2O[C@@H]3O[C@@]4(C)CC[C@H]5[C@H](C)CC[C@@H]([C@H]2C)[C@@]35OO4)c2ccc(F)cc21 (stereo partly drawn) [hybrid 7q, (3R,5aS,6R,8aS,9R,12R,12aR)-3,6,9-trimethyldecahydro-12H-3,12-epoxy[1,2]dioxepino[4,3-i]isochromen-10-yl 4-(3-(ethoxyimino)-5-fluoro-2-oxoindolin-1-yl)butanoate] | > 100 | >7.85
5 | 2.78 | > 100 | > 100 | CON=C1C(=O)N(CCCC(=O)OC2O[C@@H]3O[C@@]4(C)CC[C@H]5[C@H](C)CC[C@@H]([C@H]2C)[C@@]35OO4)c2ccccc21 (stereo partly drawn) [hybrid 7m, (3R,5aS,6R,8aS,9R,12R,12aR)-3,6,9-trimethyldecahydro-12H-3,12-epoxy[1,2]dioxepino[4,3-i]isochromen-10-yl 4-(3-(methoxyimino)-2-oxoindolin-1-yl)butanoate] | > 100 | >35.97
6 | 0.01 | > 100 | 4.89 | COc1cccc2c1C(=O)c1c(O)c3c(c(O)c1C2=O)C[C@@](O)(C(=O)CO)C[C@@H]3O[C@H]1C[C@H](N)[C@H](O)[C@H](C)O1 [Adriamycin, reference compound] | 46.9 | 4690
